# Earlier results in patent publication US20150258192A1, “COMPOSITIONS AND METHODS FOR PREVENTING OR TREATING CHRONIC LUNG ALLOGRAFT DYSFUNCTION (CLAD) AND IDIOPATHIC PULMONARY FIBROSIS (IPF)” (priority 2014, published 2015).
# Legend:
# PKA = conditions: 1 μM; cited from earlier work
# CaMKIV = CaMKIV (Homo sapiens, UniProt Q16566); conditions: 1 μM; cited from earlier work
# [1] = system: Ca^2+/calmodulin-dependent protein kinase II (CaMKII); conditions: cited from earlier work
# PKC = conditions: 1 μM; cited from earlier work
# Sequence of CaMKIV (Q16566 whole entry, species assumed): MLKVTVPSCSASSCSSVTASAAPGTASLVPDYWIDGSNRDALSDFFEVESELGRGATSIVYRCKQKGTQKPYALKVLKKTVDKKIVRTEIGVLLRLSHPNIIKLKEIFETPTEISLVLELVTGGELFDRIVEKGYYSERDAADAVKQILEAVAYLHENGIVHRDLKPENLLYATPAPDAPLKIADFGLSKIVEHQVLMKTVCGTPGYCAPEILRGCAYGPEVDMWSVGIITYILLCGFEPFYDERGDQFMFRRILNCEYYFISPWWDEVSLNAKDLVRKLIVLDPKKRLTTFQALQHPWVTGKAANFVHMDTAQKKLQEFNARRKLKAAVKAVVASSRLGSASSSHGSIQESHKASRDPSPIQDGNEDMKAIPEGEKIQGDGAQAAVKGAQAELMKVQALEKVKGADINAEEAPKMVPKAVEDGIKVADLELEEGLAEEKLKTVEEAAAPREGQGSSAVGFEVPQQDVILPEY
substance,measurement,setting,value
autocamtide-2 related inhibitory peptide [AIP],PKA activity,PKA,not affected
same,CaMKIV activity,CaMKIV,not affected
same,CaMKII activity,[1]; 1 μM,inhibited completely
same,IC50,[1],100 nM
same,PKC activity,PKC,not affected
